Assay results: US20060194230A1, “Genetic markers associated with benign prostatic hyperplasia” (BAYLOR COLLEGE OF MEDICINE, priority 2005, published 2006)

Legend:
[1] = test system: prostate RNA samples; experiment: Real-time quantitative RT-PCR validation in prostate samples from drug treated patients; type: in vivo, human; details: BPH nodules, drug treatment versus no drug
Experimental: To further refine the list of genes profiled in the microarray studies, the differential expression of 30 of these genes were tested by real-time quantitative RT-PCR (Q-RT-PCR). Since Q-RT-PCR is based on the detection of small amplimers (80-150 base pairs) it. is less affected by RNA degradation than microarrays. This allowed the inventors to used a larger sample set of prostate RNA than were included in the microarray analyses. The inventors tested […] small and 10 big prostate samples (including the 15 samples from the array analysis) and 24 samples from drug treated patients (10 treated with finasteride, 7 treated with tamsulosin, and 7 treated with both drugs). Individual comparisons were made between small and big prostates and between no drug (all 18 small and big samples) and drug treatments for each therapy drug condition without consideration of the treatment duration. Several groups of genes validated with significant differences by Q-RT-PCR between small and big prostate and/or those regulated by at least one drug treatment. The three pro-inflammatory chemokines CXCL9 (MIG), CXCL10 (IP-10), and CXCL11 (I-TAC) are best known for production by monocytes as chemotactic agents for T cells (Kim and Broxmeyer, 1999). […]

[2] = test system: TZ BPH prostate tissue; experiment: Microarray gene expression in TZ BPH nodular tissue of drug treated patients, dChip/ANOVA analysis (Table 11); type: in vivo, human; details: for expression of the five markers MIG (CXCL9), IP 10 (CXCL10), I-TAC (CXCL11), Contactin-1 (CNTN1), Dickkopf-3 (DKK3): TZ BPH tissue from treated patients versus untreated BPH tissue
Text: In specific embodiments of the present invention, the inventors employed the exemplary Affymetrix U133 Plus 2.0 whole genome microarrays to profile gene expression in the transition zone (TZ) of small (≦30 g) and big (≧70 g) prostates. In addition, they also profiled gene expression changes in TZ benign prostatic hyperplasia (BPH) tissue from patients treated with α1-receptor blockade (tamsulosin), 5α-reductase type II inhibition (finasteride), or both medications combined. Integrating the results from these profiles led to the discovery of 5 exemplary polynucleotides that in specific embodiments are diagnostic and/or prognostic biomarkers for BPH. These exemplary markers include the three interferon inducible pro-inflammatory chemokines, MIG (CXCL9), IP 10 (CXCL10), and I-TAC (CXCL11), the adhesion molecule Contactin-1 (CNTN1), the Wnt pathway signaling inhibitor Dickkopf-3 (DKK3), and any combination thereof. […] In further specific embodiments, the mechanisms by which these inflammatory BPH markers are induced and their influence on prostate hyperplasia is determined.
To address the second specific embodiment, patients awaiting radical prostatectomy were given a standard therapeutic course of tamsulosin, finasteride or both tamsulosin and finasteride for 2, 4, or 6 weeks prior to surgery. TZ BPH nodular tissue was isolated post surgery. Total RNA was purified from 24 samples from individual patients and analyzed using Affymetrix U133 Plus 2.0 microarrays. Of the 24 arrays run on drug treated patient prostates, 7 were ultimately excluded from the final analysis due poor signal quality within the arrays.
Expression levels from drug treated prostate tissue were analyzed with dChip. Comparison of changes in gene expression between drugs and between time of therapy was performed by ANOVA. This initial analysis yielded 3568 genes with significant a difference (p≦0.01) in at least 1 comparison. […] Genes regulated by drug treatment were grouped by pathway or common function and those showing multiple changes in expression are shown in Table 11.

[3] = test system: hyperplastic prostatic tissue; details: cited from earlier work
[4] = test system: prostate transition zone tissue; experiment: Microarray (Affymetrix U133 Plus 2.0) gene expression in prostates of patients treated with finasteride, tamsulosin or both before radical prostatectomy (Table 7); type: in vivo, human; details: patients treated 2, 4 or 6 weeks before prostatectomy; minus sign = down regulation
Experimental: In non-limiting exemplary embodiments of the invention, a randomized, open-label, single-center study was performed to determine the spatio-temporal changes in gene expression within the prostate of patients who receive 0.4 mg of Flomax® (tamsulosin) capsules daily, 5 mg of Proscar® (finasteride) tablets daily, or both for either 6, 4, or 2 weeks prior to radical prostatectomy. Tissue samples from radical prostatectomy specimens were obtained under an ongoing IRB-approved protocol (H-1158). Zone-specific tissue samples from patients undergoing radical prostatectomy for clinically localized prostate cancer were harvested and frozen in liquid nitrogen for later analysis. In addition to prostate cancer tissue samples, samples from the transition zone from these patients have also been harvested. Participants were randomly allocated to one of three drug treatment arms, after being categorized into one of three groups according to the duration from enrollment date to scheduled surgery date. BPH related symptoms were assessed using self-administered BPH symptom questionnaires at day of enrollment and every 2 weeks (no clinic visit required) until surgery. Medication compliance is assessed at the time of radical prostatectomy. FIG. 1 illustrates an exemplary randomized block design with variable block size for randomly assigning participants to nine treatment groups. After standard quality control analysis of extracted mRNA, 20 samples from patient prostates treated with either finasteride, tamsulosin, or both drugs together for 2, 4, or 6 weeks, were subjected to microarray chip hybridization (in conjunction with the Baylor College of Medicine Microarray Core Facility). In Table 6, patients were treated with the 5-alpha reductase inhibitor, Finasteride (FIN), or the alpha-1 adrenergic receptor antagonist, Tamsulosin (TAM), or both drugs together (FIN+TAM) for the times indicated prior to prostatectomy. Samples were used in Affymetrix U133 Plus 2.0 microarray analysis as shown. Through this analysis, a number of genes (listed in Table 7) were identified whose expression was modulated by drug treatment. These genes are associated with inflammatory pathways (an exemplary embodiment of which is provided in FIG. 2), Wnt signaling pathway (an exemplary embodiment of which is provided in FIG. 3); cell signaling and cell cycle regulatory pathway (an exemplary embodiment of which is provided in FIG. 4), or extracellular matrix remodeling. Although several of these genes have previously been implicated in prostate cancer progression, they have not been described in connection with progression of BPH or in connection with the exemplary drug treatment regimes described above. In Table 7, there are polynucleotides showing 1.3-77 fold changes in expression level after drug treatment. Down regulation after drug treatment is signified by “-” in front of the fold change. In particular embodiments, the information may be obtained at particular timepoints following the onset of therapy, such as about 1 day, 2 days, 3 days, 4 days, 5 days, 6 days, 1 week, 2 weeks, 3 weeks, 4 weeks, 5 weeks, 6 weeks, 7 weeks, 8 weeks, or combinations thereof, or more or less, for example. In the specific embodiments wherein more than one timepoint is evaluated, an average of the timepoints may be obtained.

[5] = test system: prostate cell lines; experiment: Induction of potential BPH markers in prostate cell lines cultured with androgen or inflammatory agents; type: cell-based, human; details: non-cancer prostate cell lines cultured in the presence of the agent
Experimental: To confirm the expression of CXCL9, 10 and 11, contactin 1 and CXCR3 in prostate tissue, the present inventors examined several non-cancer prostate cell lines for these markers. The prostate epithelial cells RWPE-1 and PWR-1E are androgen responsive nomal or hyperplastic cells transformed with HPV1828, 29. The epithelial cell line BPH 130 is originated from BPH tissue transformed with SV40 T antigen. […] Cells were cultured in their prescribed media and were fixed, permeabilized and stained by standard methods and analyzed by single color flow cytometry. […] To determine if prostate cell expression of CXCL chemokines was responsive to interferon stimulation, stromal and epithelial cell lines were cultured in the presence of IFNγ. Chemokine induction was measured by Q-RT-PCR and is shown as fold induction over basal expression in untreated cells (FIG. 12).

[6] = test system: prostate cell lines; type: cell-based, human; details: 4 prostate cell lines, with or without 100 U/ml IFNγ, Q-RT-PCR
Experimental: 4 prostate cell lines were cultured in media with or without 100 U/ml IFNγ. Chemokine expression was determined by Q-RT-PCR and induction calculated using the 2^−ΔΔCt method compared to untreated cells.
To confirm the expression of CXCL9, 10 and 11, contactin 1 and CXCR3 in prostate tissue, the present inventors examined several non-cancer prostate cell lines for these markers. The prostate epithelial cells RWPE-1 and PWR-1E are androgen responsive nomal or hyperplastic cells transformed with HPV1828, 29. The epithelial cell line BPH 130 is originated from BPH tissue transformed with SV40 T antigen. The cell lines HTS-2T and HPS-19B are primary prostate stromal cell lines from TZ and PZ, respectively (Singh et al., 2004). Cells were cultured in their prescribed media and were fixed, permeabilized and stained by standard methods and analyzed by single color flow cytometry. The chemokines CXCL9, 10 and 11 were present in all cells tested as was contactin 1 (FIG. 11). DKK3 was not tested for lack of a suitable antibody for flow cytometric analysis. CXCR3 was highly expressed in all the cells. […] Chemokine induction was measured by Q-RT-PCR and is shown as fold induction over basal expression in untreated cells (FIG. 12). […]

[7] = treatment with drug between 2 and 6 weeks, TZ BPH tissue

| Molecule | expression of chemokines CXCL9 (MIG), CXCL10 (IP-10), CXCL11 (I-TAC) [1] | expression of the five markers MIG (CXCL9), IP 10 (CXCL10), I-TAC (CXCL11), Contactin-1 (CNTN1), Dickkopf-3 (DKK3) [2] | CKTSF1B1 (Gremlin) differential gene expression [2, 7] [fold] | CXCL9 differential gene expression [2, 7] [fold] | HLA-DP differential gene expression [2, 7] [fold] | HS3ST3B1 differential gene expression [2, 7] [fold] | ORM1 differential gene expression [2, 7] [fold] | VEGF differential gene expression [2, 7] [fold] | WIF1 differential gene expression [2, 7] [fold] | CKTSF1B1 (Gremlin) expression fold change after drug treatment [4] [fold] | CXCL9 expression fold change after drug treatment [4] [fold] | CXCL10 expression fold change after drug treatment [4] [fold] | CXCL11 expression fold change after drug treatment [4] [fold] | CyclophilinC expression fold change after drug treatment [4] [fold] | Frizzled 10 expression fold change after drug treatment [4] [fold] | HLA-DP expression fold change after drug treatment [4] [fold] | HS3ST3B1 expression fold change after drug treatment [4] [fold] | ORM1 expression fold change after drug treatment [4] [fold] | VEGF expression fold change after drug treatment [4] [fold] | WIF1 expression fold change after drug treatment [4] [fold] | other results |
| --- | --- | --- | --- | --- | --- | --- | --- | --- | --- | --- | --- | --- | --- | --- | --- | --- | --- | --- | --- | --- | --- |
| CC(C)(C)NC(=O)[C@H]1CC[C@H]2[C@@H]3CC[C@H]4NC(=O)C=C[C@]4(C)[C@H]3CC[C@]12C [Finasteride, finasteride] | decreased | decreased | −4.10 | −3.61 | −2.29 | −2.29 | 2.38 | −2.15 | −7.53 | −4.10 | −2.85 | −2.01 | −2.62 | −2.52 | −2.45 | −2.29 | −2.29 | 2.38 | −2.15 | −7.53 | CTNNB1 differential gene expression [2, 7]: 2.26 fold; Frizzled 10 differential gene expression [2, 7]: −2.45 fold; KLK4 differential gene expression [2, 7]: −3.47 fold; reduction of prostate growth ([3]; over the first year, without recurrance of significant prostatic growth): ≤ 20%; DKK3 expression fold change after drug treatment [4]: −2.28 fold; KLK4 expression fold change after drug treatment [4]: −3.47 fold; SPROUTY2 expression fold change after drug treatment [4]: −1.94 fold; ZNF36 expression fold change after drug treatment [4]: −1.55 fold |
| C[C@]1(O)CC[C@H]2[C@@H]3CCC4=CC(=O)CCC4=C3C=C[C@@]21C [R1881] | – | – | – | – | – | – | – | – | – | – | – | – | – | – | – | – | – | – | – | – | changes in BPH marker expression (CXCL9, 10, 11, contactin 1, CXCR3) [5]: No changes |
| CCOc1ccccc1OCCN[C@H](C)Cc1ccc(OC)c(S(N)(=O)=O)c1 [Tamsulosin, tamsulosin] | decreased | decreased | −4.76 | −2.86 | −2.33 | −2.20 | 76.96 | −2.01 | −4.60 | −4.76 | −3.37 | −4.65 | −5.81 | −1.87 | −1.82 | −2.33 | −2.20 | 76.96 | −2.01 | −4.60 | DKK3 differential gene expression [2, 7]: −2.85 fold; Cbl-b expression fold change after drug treatment [4]: 1.30 fold; Dicer 1 expression fold change after drug treatment [4]: 1.30 fold |
| COc1cc2nc(N3CCN(C(=O)C4COc5ccccc5O4)CC3)nc(N)c2cc1OC (stereo not shown) [doxazosin] | – | – | – | – | – | – | – | – | – | – | – | – | – | – | – | – | – | – | – | – | apoptosis in the stromal compartment of hyperplastic prostatic tissue ([3]; alpha blockade): increases; overall re-occurrence rate of BPH ([3]; alpha blockade): does not decrease |
| IFNγ: interferon-γ used to stimulate prostate cell lines, 100 U/ml (protein, UniProt P01579 24-161, looked up) Interferon gamma: QDPYVKEAENLKKYFNAGHSDVADNGTLFLGILKNWKEESDRKIMQSQIVSFYFKLFKNFKDDQSIQKSVETIKEDMNVKFFNSNKKKRDDFEKLTNYSVTDLNVQRKAIHELIQVMAELSPAAKTGKRKRSQMLFRG | – | – | – | – | – | – | – | – | – | – | – | – | – | – | – | – | – | – | – | – | CXCL chemokine expression in prostate cells [6]: up-regulated |
